# Measured values as given in US9637485B2, “6,7-dihydrobenzo[a]quinolizin-2-one derivatives for the treatment and prophylaxis of hepatitis B virus infection” (Hoffmann-La Roche Inc., priority 2014, dated 2017).
# Test system: HBsAg
# Assay: HBsAg assay (CLIA of secreted HBsAg in HepG2.2.15 culture supernatant)
# Format: cell-based, HBV
# Conditions: Hepatitis B virus, HepG2.2.15, read-out: IC50 (HBsAg secretion reduced by 50% compared to the no drug control), HepG2.2.15 cells, culture supernatant, HBsAg CLIA
# Procedure: HepG2.2.15 cells (Acs et al. Proc Natl Acad Sci USA, 84, (1987), 4641-4), a constitutively HBV-expressing cell line were cultured in DMEM+Glutamax-I medium (Invitrogen, Carlsbad, Calif., USA, Catalog number: 11320082), supplemented with 10% fetal bovine serum (Invitrogen, Catalog number: 10099141) and G418 (Invitrogen, Catalog number: 10131027) at a final concentration of 200 mg/L and maintained in 5% CO2 at 37° C.
# HepG2.2.15 cells were seeded in duplicate into white, 96-well plates at 1.5×10^4 cells/well. The cells were treated with a three-fold serial dilution series of the compounds in DMSO. The final DMSO concentration in all wells was 1% and DMSO was used as no drug control.
# The HBsAg chemiluminescence immunoassay (CLIA) kit (Autobio Diagnostics Co., Zhengzhou, China, Catalog number: CL0310-2) was used to measure the levels of secreted HBV antigens semi-quantitatively. For the detection 50 μL/well culture supernatant was used and HBsAg was quantified using HBsAg chemiluminescence immunoassay (CLIA) kit (Autobio Diagnostics Co., Zhengzhou, China, Catalog number: CL0310-2), 50 μl of the supernatant was transferred to the CLIA assay plate and 50 μL of enzyme conjugate reagent was added into each well. The plates were sealed and gently agitated for 1 hour at room temperature. The supernatant-enzyme-mixture was discarded and wells were washed 6 times with 300 μL of PBS. The residual liquid was removed by plating the CLIA plate right side down on absorbent tissue paper. 25 μL of substrates A and B were added to each well. Luminance was measured using a luminometer (Mithras LB 940 Multimode Microplate Reader) after 10 minutes incubation. Dose-response curves were generated and the IC50 value was extrapolated by using the E-WorkBook Suite (ID Business Solutions Ltd., Guildford, UK). The IC50 was defined as the compound concentration (or conditioned media log dilution) at which HBsAg secretion was reduced by 50% compared to the no drug control.
row,SMILES,IC50 [nM]
1,"COCC(C)(C)C1Cc2cc(OCCCN3CCOCC3)c(OC)cc2-c2cc(=O)c(C(=O)O)cn21 (centres unmarked) [Example 4, 10-Methoxy-6-(2-methoxy-1,1-dimethyl-ethyl)-9-(3-morpholinopropoxy)-2-oxo-6,7-dihydrobenzo[a]quinolizine-3-carboxylic acid]",14
2,"COCC(C)(C)C1Cc2cc(OCCCCCCO)c(OC)cc2-c2cc(=O)c(C(=O)O)cn21 (centres unmarked) [Example 5, 9-(6-Hydroxyhexoxy)-10-methoxy-6-(2-methoxy-1,1-dimethyl-ethyl)-2-oxo-6,7-dihydrobenzo[a]quinolizine-3-carboxylic acid]",6
3,"COCC(C)(C)C1Cc2cc(OCCCO)c(OC)cc2-c2cc(=O)c(C(=O)O)cn21 (centres unmarked) [Example 6, 9-(3-Hydroxypropoxy)-10-methoxy-6-(2-methoxy-1,1-dimethyl-ethyl)-2-oxo-6,7-dihydrobenzo[a]quinolizine-3-carboxylic acid]",22
4,"COCC(C)(C)C1Cc2cc(OCC(C)(C)CO)c(OC)cc2-c2cc(=O)c(C(=O)O)cn21 (centres unmarked) [Example 7, 9-(3-Hydroxy-2,2-dimethyl-propoxy)-10-methoxy-6-(2-methoxy-1,1-dimethyl-ethyl)-2-oxo-6,7-dihydrobenzo[a]quinolizine-3-carboxylic acid]",9
5,"CCOCCOc1cc2c(cc1OC)-c1cc(=O)c(C(=O)O)cn1C(C(C)(C)COC)C2 (centres unmarked) [Example 8, 9-(2-Ethoxyethoxy)-10-methoxy-6-(2-methoxy-1,1-dimethyl-ethyl)-2-oxo-6,7-dihydrobenzo[a]quinolizine-3-carboxylic acid]",12
6,"COCC(C)(C)C1Cc2cc(OCC3CC3)c(OC)cc2-c2cc(=O)c(C(=O)O)cn21 (centres unmarked) [Example 9, 9-(Cyclopropylmethoxy)-10-methoxy-6-(2-methoxy-1,1-dimethyl-ethyl)-2-oxo-6,7-dihydrobenzo[a]quinolizine-3-carboxylic acid]",4
7,"COCC(C)(C)C1Cc2cc(OCCCSC)c(OC)cc2-c2cc(=O)c(C(=O)O)cn21 (centres unmarked) [Example 10, 10-Methoxy-6-(2-methoxy-1,1-dimethyl-ethyl)-9-(3-methylsulfanylpropoxy)-2-oxo-6,7-dihydrobenzo[a]quinolizine-3-carboxylic acid]",6
8,"COCC(C)(C)C1Cc2cc(OCCCN3CCCC3)c(OC)cc2-c2cc(=O)c(C(=O)O)cn21 (centres unmarked) [Example 11, 10-Methoxy-6-(2-methoxy-1,1-dimethyl-ethyl)-2-oxo-9-(3-pyrrolidin-1-ylpropoxy)-6,7-dihydrobenzo[a]quinolizine-3-carboxylic acid]",519
9,"COCC(C)(C)C1Cc2cc(OCCCN3CCCC3=O)c(OC)cc2-c2cc(=O)c(C(=O)O)cn21 (centres unmarked) [Example 12, 10-Methoxy-6-(2-methoxy-1,1-dimethyl-ethyl)-2-oxo-9-[3-(2-oxopyrrolidin-1-yl)propoxy]-6,7-dihydrobenzo[a]quinolizine-3-carboxylic acid]",190
10,"COCC(C)(C)C1Cc2cc(OCCCN(C)C)c(OC)cc2-c2cc(=O)c(C(=O)O)cn21 (centres unmarked) [Example 13, 9-[3-(Dimethylamino)propoxy]-10-methoxy-6-(2-methoxy-1,1-dimethyl-ethyl)-2-oxo-6,7-dihydrobenzo[a]quinolizine-3-carboxylic acid]",579
11,"COCC(C)(C)C1Cc2cc(OCCCCCCNC(=O)OC(C)(C)C)c(OC)cc2-c2cc(=O)c(C(=O)O)cn21 (centres unmarked) [Example 14, 9-[6-(tert-Butoxycarbonylamino)hexoxy]-10-methoxy-6-(2-methoxy-1,1-dimethyl-ethyl)-2-oxo-6,7-dihydrobenzo[a]quinolizine-3-carboxylic acid]",3
12,"COCC(C)(C)C1Cc2cc(OCCCS(C)(=O)=O)c(OC)cc2-c2cc(=O)c(C(=O)O)cn21 (centres unmarked) [Example 15, 10-Methoxy-6-(2-methoxy-1,1-dimethyl-ethyl)-9-(3-methylsulfonylpropoxy)-2-oxo-6,7-dihydrobenzo[a]quinolizine-3-carboxylic acid]",124
13,"COCC(C)(C)C1Cc2cc(OCCCCCCN)c(OC)cc2-c2cc(=O)c(C(=O)O)cn21 (centres unmarked) [Example 16, 9-(6-Aminohexoxy)-10-methoxy-6-(2-methoxy-1,1-dimethyl-ethyl)-2-oxo-6,7-dihydrobenzo[a]quinolizine-3-carboxylic acid]",68
14,"COCC(C)(C)C1Cc2cc(OCCC3CCCN3C)c(OC)cc2-c2cc(=O)c(C(=O)O)cn21 (centres unmarked) [Example 17, 10-Methoxy-6-(2-methoxy-1,1-dimethyl-ethyl)-9-[2-(1-methylpyrrolidin-2-yl)ethoxy]-2-oxo-6,7-dihydrobenzo[a]quinolizine-3-carboxylic acid]",537
15,"COCCCOc1cc2c(cc1OC)-c1cc(=O)c(C(=O)O)cn1C(COC)C2 (centres unmarked) [Example 18, 10-Methoxy-6-(methoxymethyl)-9-(3-methoxypropoxy)-2-oxo-6,7-dihydrobenzo[a]quinolizine-3-carboxylic acid]",75
16,"COCCCOc1cc2c(cc1Cl)-c1cc(=O)c(C(=O)O)cn1C(C1CCOCC1)C2 (centres unmarked) [Example 19, 10-Chloro-9-(3-methoxypropoxy)-2-oxo-6-tetrahydropyran-4-yl-6,7-dihydrobenzo[a]quinolizine-3-carboxylic acid]",88
17,"COCCCOc1cc2c(cc1OC)-c1cc(=O)c(C(=O)O)cn1C(C(C)(C)COCc1ccccc1)C2 (centres unmarked) [Example 23, 6-(2-Benzyloxy-1,1-dimethyl-ethyl)-10-methoxy-9-(3-methoxypropoxy)-2-oxo-6,7-dihydrobenzo[a]quinolizine-3-carboxylic acid]",18
18,"COCCOc1cc2c(cc1Cl)-c1cc(=O)c(C(=O)O)cn1C(CSC)C2 (centres unmarked) [Example 33, 10-Chloro-9-(2-methoxyethoxy)-6-(methylsulfanylmethyl)-2-oxo-6,7-dihydrobenzo[a]quinolizine-3-carboxylic acid]",117
19,"COCCOc1cc2c(cc1Cl)-c1cc(=O)c(C(=O)O)cn1C(CS(C)(=O)=O)C2 (centres unmarked) [Example 34, 10-Chloro-9-(2-methoxyethoxy)-6-(methylsulfonylmethyl)-2-oxo-6,7-dihydrobenzo[a]quinolizine-3-carboxylic acid]",3380
20,"CCOc1cc2c(cc1OCC)-c1cc(=O)c(C(=O)O)cn1C(CO)C2 (centres unmarked) [Example 35, 9,10-Diethoxy-6-(hydroxymethyl)-2-oxo-6,7-dihydrobenzo[a]quinolizine-3-carboxylic acid]",868
21,"CCOc1cc2c(cc1OCC)-c1cc(=O)c(C(=O)O)cn1C(COC(C)=O)C2 (centres unmarked) [Example 36, 6-(Acetoxymethyl)-9,10-diethoxy-2-oxo-6,7-dihydrobenzo[a]quinolizine-3-carboxylic acid]",254
22,"CCOc1cc2c(cc1OCC)-c1cc(=O)c(C(=O)O)cn1C(CN)C2 (centres unmarked) [Example 37, 6-(Aminomethyl)-9,10-diethoxy-2-oxo-6,7-dihydrobenzo[a]quinolizine-3-carboxylic acid]",1540
23,"CCOc1cc2c(cc1OCC)-c1cc(=O)c(C(=O)O)cn1C(CNS(C)(=O)=O)C2 (centres unmarked) [Example 38, 9,10-Diethoxy-6-(methanesulfonamidomethyl)-2-oxo-6,7-dihydrobenzo[a]quinolizine-3-carboxylic acid]",33300
24,"CCOc1cc2c(cc1OCC)-c1cc(=O)c(C(=O)O)cn1C(CNC(=O)c1ccccc1)C2 (centres unmarked) [Example 39, 6-(Benzamidomethyl)-9,10-diethoxy-2-oxo-6,7-dihydrobenzo[a]quinolizine-3-carboxylic acid]",19800
25,"CCOc1cc2c(cc1OCC)-c1cc(=O)c(C(=O)O)cn1C(CN1CCCC1=O)C2 (centres unmarked) [Example 40, 9,10-Diethoxy-2-oxo-6-[(2-oxopyrrolidin-1-yl)methyl]-6,7-dihydrobenzo[a]quinolizine-3-carboxylic acid]",7450
26,"CCOc1cc2c(cc1OCC)-c1cc(=O)c(C(=O)O)cn1C(CN(C)C(C)=O)C2 (centres unmarked) [Example 41, 6-[[Acetyl(methyl)amino]methyl]-9,10-diethoxy-2-oxo-6,7-dihydrobenzo[a]quinolizine-3-carboxylic acid]",4860
27,"CCOc1cc2c(cc1OCC)-c1cc(=O)c(C(=O)O)cn1C(CN1CCCC1)C2 (centres unmarked) [Example 42, 9,10-Diethoxy-2-oxo-6-(pyrrolidin-1-ylmethyl)-6,7-dihydrobenzo[a]quinolizine-3-carboxylic acid]",216
28,"CCOc1cc2c(cc1OCC)-c1cc(=O)c(C(=O)O)cn1C(CN(C)C)C2 (centres unmarked) [Example 43, 6-[(Dimethylamino)methyl]-9,10-diethoxy-2-oxo-6,7-dihydrobenzo[a]quinolizine-3-carboxylic acid]",134
29,"COCC(C)(C)C1Cc2cc(OCCCn3cccn3)c(OC)cc2-c2cc(=O)c(C(=O)O)cn21 (centres unmarked) [Example 44, 10-Methoxy-6-(2-methoxy-1,1-dimethyl-ethyl)-2-oxo-9-(3-pyrazol-1-ylpropoxy)-6,7-dihydrobenzo[a]quinolizine-3-carboxylic acid]",190
